Experimental data from patent publication US5508266A, “Gem-disubstituted amino acid derivatives” (Ciba-Geigy Corporation, priority 1994, dated 1996).
pIC50: −log10 of the molar value.

Experiments:
[1] = target: T1, neutral endopeptidase (NEP, EC 3.4.24.11) (Rattus norvegicus, UniProt P07861); assay: GAAP in vitro assay of neutral endopeptidase (rat kidney cortex membranes); type: biochemical; details: substrate glutaryl-Ala-Ala-Phe-2-naphthylamide 500 μM, pH 7.4 at 25° C.
T1 construct: 4.2 μg of protein (rat kidney cortex membranes prepared by method of Maeda et at, 1983); from tissue; host or cells: rat kidney cortex membranes
T1 sequence (P07861 1-750): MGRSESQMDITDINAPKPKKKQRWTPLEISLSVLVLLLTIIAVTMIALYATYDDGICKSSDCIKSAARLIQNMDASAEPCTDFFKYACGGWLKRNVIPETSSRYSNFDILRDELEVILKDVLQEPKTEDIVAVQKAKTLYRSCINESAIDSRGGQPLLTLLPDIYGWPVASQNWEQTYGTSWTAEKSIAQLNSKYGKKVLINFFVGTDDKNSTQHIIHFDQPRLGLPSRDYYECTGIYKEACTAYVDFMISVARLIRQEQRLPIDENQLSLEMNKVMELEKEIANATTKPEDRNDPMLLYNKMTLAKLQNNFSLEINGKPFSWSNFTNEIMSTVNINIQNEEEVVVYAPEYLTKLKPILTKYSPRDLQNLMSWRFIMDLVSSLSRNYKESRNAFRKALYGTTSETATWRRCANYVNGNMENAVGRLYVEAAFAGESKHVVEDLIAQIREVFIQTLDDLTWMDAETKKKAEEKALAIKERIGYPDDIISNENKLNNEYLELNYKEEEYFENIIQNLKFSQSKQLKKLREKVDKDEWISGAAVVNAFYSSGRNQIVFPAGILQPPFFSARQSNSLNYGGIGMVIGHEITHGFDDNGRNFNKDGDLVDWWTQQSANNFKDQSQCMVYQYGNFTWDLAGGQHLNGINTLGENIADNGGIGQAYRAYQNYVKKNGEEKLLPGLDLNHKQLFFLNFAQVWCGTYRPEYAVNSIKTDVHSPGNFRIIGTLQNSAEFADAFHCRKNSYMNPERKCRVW
Experimental: In vitro testing is most appropriate for the free carboxylic acids of the invention. The test compound is dissolved in dimethyl sulfoxide, ethanol, or 0.25M sodium bicarbonate solution, and the solution is diluted with buffer to the desired concentration.
The in vitro inhibition of neutral endopeptidase (NEP, EC 3.4.24.11) can be determined as follows:
Neutral endopeptidase 3.4.24.11 activity is determined by the hydrolysis of the substrate glutaryl-Ala-Ala-Phe-2-naphthylamide (GAAP) using a modified procedure of Orlowski and Wilk (1981). The incubation mixture (total volume 125 μl) contains 4.2 μg of protein (rat kidney cortex membranes prepared by method of Maeda et at, 1983), 50 mM tris buffer, pH 7.4 at 25° C., 500 μM substrate (final concentration), and leucine aminopeptidase M (2.5 μg). The mixture is incubated for 10 minutes at 25° C. and 100 μl of fast garnet (250 μg fast garnet/ml of 10% Tween 20 in 1M sodium acetate, pH 4.2) is added. Enzyme activity is measured spectrophotometrically at 540 nm. One unit of NEP 24.11 activity is defined as 1 nmol of 2-naphthylamine released per minute at 25° C. at pH 7.4. IC50 values are determined, i.e. the concentration of test compound required for 50% inhibition of the release of 2-naphthylamine.

[2] = target: T2, angiotensin converting enzyme (Rattus norvegicus, UniProt P47820); assay: Inhibition of angiotensin I induced pressor response in normotensive rats; type: in vivo; details: 10 mg/Kg i.v., male normotensive anesthetized rats, 300 ng/kg angiotensin I i.v. challenge
T2 construct: from tissue; host or cells: whole animal: male, normotensive rats
T2 sequence (P47820 36-1313): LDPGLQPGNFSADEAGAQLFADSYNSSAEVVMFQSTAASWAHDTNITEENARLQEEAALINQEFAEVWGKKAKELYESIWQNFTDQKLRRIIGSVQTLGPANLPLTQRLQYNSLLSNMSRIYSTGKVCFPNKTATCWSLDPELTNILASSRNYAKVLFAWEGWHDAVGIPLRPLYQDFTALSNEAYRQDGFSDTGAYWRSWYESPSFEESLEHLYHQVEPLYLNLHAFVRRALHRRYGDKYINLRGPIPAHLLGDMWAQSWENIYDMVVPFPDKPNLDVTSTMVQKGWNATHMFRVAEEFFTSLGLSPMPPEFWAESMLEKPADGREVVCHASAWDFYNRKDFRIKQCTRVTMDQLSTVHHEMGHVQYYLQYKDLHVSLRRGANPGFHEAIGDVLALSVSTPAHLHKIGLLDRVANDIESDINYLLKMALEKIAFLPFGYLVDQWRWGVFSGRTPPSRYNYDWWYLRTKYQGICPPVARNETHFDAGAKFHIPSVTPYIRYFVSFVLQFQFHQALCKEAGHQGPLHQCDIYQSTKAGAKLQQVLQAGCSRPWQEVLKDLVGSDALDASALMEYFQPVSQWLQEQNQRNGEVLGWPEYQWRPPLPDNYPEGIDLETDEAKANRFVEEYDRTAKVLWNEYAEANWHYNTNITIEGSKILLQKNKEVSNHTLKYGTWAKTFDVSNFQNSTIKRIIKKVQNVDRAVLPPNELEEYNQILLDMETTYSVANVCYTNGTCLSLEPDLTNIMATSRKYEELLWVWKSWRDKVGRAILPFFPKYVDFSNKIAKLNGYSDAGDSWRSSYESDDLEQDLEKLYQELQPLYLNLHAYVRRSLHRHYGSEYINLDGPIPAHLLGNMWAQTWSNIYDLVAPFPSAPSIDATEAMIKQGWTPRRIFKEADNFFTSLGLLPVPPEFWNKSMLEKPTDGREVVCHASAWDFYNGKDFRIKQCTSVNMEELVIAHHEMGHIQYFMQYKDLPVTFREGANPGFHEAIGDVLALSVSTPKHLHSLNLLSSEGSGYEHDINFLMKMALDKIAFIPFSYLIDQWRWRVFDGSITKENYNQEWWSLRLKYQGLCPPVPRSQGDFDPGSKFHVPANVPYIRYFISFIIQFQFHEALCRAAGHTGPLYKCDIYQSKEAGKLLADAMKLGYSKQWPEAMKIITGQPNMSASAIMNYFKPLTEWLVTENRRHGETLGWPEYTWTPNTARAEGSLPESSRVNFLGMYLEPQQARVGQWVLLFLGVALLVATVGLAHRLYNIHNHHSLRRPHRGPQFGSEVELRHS
Experimental: The in vivo test for intravenously administered compounds is performed with male, normotensive rats, which are anesthetized with sodium metofan. A femoral artery and femoral vein are cannulated respectively for direct blood pressure measurement on i.v. administration of angiotensin I and i.v. or p.o. administration of a compound of this invention. After the basal blood pressure is stabilized, pressor responses to 3 challenges of 300 ng/kg angiotensin I i.v., at 15 minute intervals, are obtained. Such pressure responses are usually again obtained at 15, 30, 60 and 90 minutes, and then every hour up to 6 hours after i.v. or p.o. administration of the compound to be tested, and compared with the initial responses. Any observed decrease of said pressor response is an indication of Angiotensin I converting enzyme inhibition.

pIC50 [1]: ~8.04 | duration of inhibition of the Angiotensin I induced pressor response [2]: 6 h
SMILES: CC(C)[C@H](S)C(=O)NC(C)(C)C(=O)N[C@@H](Cc1ccc(O)cc1)C(=O)O [Example 2, N-[2-(2(S)-mercapto-3-methyl-1-oxobutylamino)-2-methyl-1-oxopropyl]-L-tyrosine]
